From patent US8536133B2, “Selective high-affinity polydentate ligands and methods of making such” (Lawrence Livermore National Security, LLC., priority 2004, dated 2013)

Target: HLA-DR10 (Homo sapiens, UniProt P01911)
Assay: Subsequent screenings of ligands for binding to HLA-DR10

Chain of HLA-DR10 (P01911 30-266 with the stated changes): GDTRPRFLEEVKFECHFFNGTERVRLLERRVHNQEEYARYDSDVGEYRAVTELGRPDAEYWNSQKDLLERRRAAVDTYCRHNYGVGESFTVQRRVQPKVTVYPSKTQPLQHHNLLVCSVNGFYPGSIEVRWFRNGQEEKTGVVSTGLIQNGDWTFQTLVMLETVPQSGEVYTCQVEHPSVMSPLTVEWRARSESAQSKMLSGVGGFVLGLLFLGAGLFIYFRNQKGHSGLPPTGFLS
Chain of HLA-DR10 (P01903 26-254 partner): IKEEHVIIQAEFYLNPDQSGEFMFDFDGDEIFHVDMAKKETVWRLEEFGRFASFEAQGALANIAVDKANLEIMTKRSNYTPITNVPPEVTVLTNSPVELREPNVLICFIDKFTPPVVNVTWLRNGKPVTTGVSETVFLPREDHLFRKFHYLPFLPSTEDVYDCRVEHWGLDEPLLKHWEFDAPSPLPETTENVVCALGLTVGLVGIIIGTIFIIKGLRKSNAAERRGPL

observation with the target protein in screening: precipitated onto the target protein
SMILES: Nc1ccc(Oc2ccc(C(=O)c3ccc(C(=O)c4ccc(Oc5ccc(N)cc5)cc4)cc3)cc2)cc1 [1,4-Phenylenebis[[4-(4-aminophenoxy)phenyl]methanone]]
